Test results: patent US5347012A, “Naphthothiopyranone derivatives” (Taisho Pharmaceutical Co., Ltd., priority 1990, dated 1994)

Tested on: Emesis induced by cisplatin
Experiment: Anti-vomiting effect test: inhibition of cisplatin-induced emesis in suncus
Assay type: in vivo
Details: 45 min before cisplatin 30 mg/kg i.v., emesises over 2 hours; for % value to control (number of emesises): control = 100%
Description: Emesis induced by cisplatin is known to be inhibited by antagonists at 5-HT3 receptors. The anti-vomiting effect of the compound of the present invention was compared with that of the compound described in Example of Japanese Patent Kokai 2-209876 according to the method of Matsumoto et al [Japanese Journal of Pharmacology, vol. 48, pp. 303-306 (1988)].
The compound obtained in Example 4 (hereinafter referred to as "Compound A") and the compound described in Example 1 of Japanese Patent Kokai 2-209876 (hereinafter referred to as "Compound B") were each suspended in 0.4% aqueous carboxymethylcellulose solution to give test samples.
Group each of six suncus of either sex weighing 40-60 g (male) and 30-50 g (female) were used. Each animal was placed with a chronic intravenous cannula 3 days before vomiting test. The samples prepared above were orally administered in the doses of 0.03-3 mg/kg to each group of the animals. After 45 minutes 30 mg/kg of cisplatin was administered intravenously, and number of emesises was determined for a period of 2 hours. Number of emesises for a period of 2 hours of a control group treated with 0.4% carboxymethylcellulose suspension alone was determined as well.
Number of emesises obtained above was expressed as compared with 100% of the control, and IC50 value was calculated by number of emesises.

Cc1nccn1Cc1csc2ccc3ccccc3c2c1=O.Cl [Compound A, 2-[(2-Methyl-1-imidazolyl)methyl]-1H-naphtho-[2,1-b]thiopyran-1-one hydrochloride]
% value to control (number of emesises) (0.03 mg/kg oral): 77.8%
% value to control (number of emesises) (0.3 mg/kg oral): 17.0%
% value to control (number of emesises) (3 mg/kg oral): 4.4%
ED50 (oral, doses 0.03-3 mg/kg, read-out: IC50 value (number of emesises)): 0.0904 mg/kg
